Reference: ChEMBL document CHEMBL4619755 (J Nat Prod, 2020)
Calls of active or inactive are those of the source. The calls are words filed in the database; no cut-off is given here.

Legend:
THP-1 [1] = assay: Inhibition of TNF-alpha secretion in LPS-stimulated human THP1 cells assessed as TNF-alpha level at 10 uM incubated for 1 hr followed by nigericin addition and measured after 1 hr by ELISA (reference value: 957.6 pg/mL); type: functional
[2] = target: NACHT, LRR and PYD domains-containing protein 3 (Homo sapiens) (UniProt Q96P20); assay: Inhibition of NLRP3 inflammasome activation in LPS-stimulated human THP1 cells assessed as reduction in IL-1beta secretion at 0.1 uM incubated for 1 hr followed by nigericin addition and measured after 1 hr by ELISA relative to control; type: cell-based; settings: THP-1
[3] = Cytotoxicity against human THP1 cells assessed as cell viability at 100 uM after 24 hrs by CellTiter-Glo luminescent cell viability assay relative to control; type: cell-based; settings: THP-1 cells, read-out: Activity
[4] = target: NACHT, LRR and PYD domains-containing protein 3 (Homo sapiens) (UniProt Q96P20); assay: Inhibition of NLRP3 inflammasome activation in LPS-stimulated human THP1 cells assessed as reduction in IL-1beta secretion at 1 uM incubated for 1 hr followed by nigericin addition and measured after 1 hr by ELISA relative to control; type: cell-based; settings: THP-1
[5] = target: T1, P2X purinoceptor 7 (Homo sapiens) (UniProt Q99572); assay: Modulation of P2X7 receptor in nigericin-stimulated human THP1 cells assessed as intracellular potassium efflux at 10 uM incubated for 30 mins followed by 1 uM nigericin challenge and measured after 30 mins by Green-2 AM dye based flow cytometric analysis (reference value: 27.1%); type: cell-based; settings: THP-1
T1 sequence (whole entry): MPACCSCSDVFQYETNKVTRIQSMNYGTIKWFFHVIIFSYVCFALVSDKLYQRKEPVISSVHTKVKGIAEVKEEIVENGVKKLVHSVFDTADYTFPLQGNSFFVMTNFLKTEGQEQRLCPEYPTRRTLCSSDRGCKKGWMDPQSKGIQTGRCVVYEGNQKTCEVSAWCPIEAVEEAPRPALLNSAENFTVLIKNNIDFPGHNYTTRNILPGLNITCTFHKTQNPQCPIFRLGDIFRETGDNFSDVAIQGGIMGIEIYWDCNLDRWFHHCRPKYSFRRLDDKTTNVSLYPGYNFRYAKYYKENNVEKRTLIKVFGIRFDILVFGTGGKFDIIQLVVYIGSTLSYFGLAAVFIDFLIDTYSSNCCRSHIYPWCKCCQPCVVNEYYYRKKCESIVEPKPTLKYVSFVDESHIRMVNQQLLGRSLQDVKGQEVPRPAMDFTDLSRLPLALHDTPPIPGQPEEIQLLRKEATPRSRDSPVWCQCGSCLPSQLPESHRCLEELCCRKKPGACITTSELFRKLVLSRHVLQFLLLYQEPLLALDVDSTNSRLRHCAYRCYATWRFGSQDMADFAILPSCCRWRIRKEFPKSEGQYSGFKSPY

[6] = target: T1, P2X purinoceptor 7 (Homo sapiens); assay: Modulation of P2X7 receptor in nigericin-stimulated human THP1 cells assessed as intracellular potassium efflux at 10 uM incubated for 30 mins followed by 10 uM nigericin challenge and measured after 30 mins by Green-2 AM dye based flow cytometric analysis (reference value: 27.1%); type: cell-based; settings: THP-1
[7] = Cytotoxicity against human THP1 cells assessed as cell viability at 10 uM after 24 hrs by CellTiter-Glo luminescent cell viability assay relative to control; type: cell-based; settings: THP-1 cells, read-out: Activity
THP-1 [8] = assay: Antiinflammatory activity in LPS-induced human THP1 cells assessed as IL-1beta secretion at 10 uM incubated for 1 hr followed by LPS stimulation and measured after 24 hrs by ELISA (reference value: 51.2 pg/mL); type: functional
[9] = target: T1, P2X purinoceptor 7 (Homo sapiens); assay: Modulation of P2X7 receptor in nigericin-stimulated human THP1 cells assessed as intracellular potassium efflux at 10 uM incubated for 30 mins followed by 5 uM nigericin challenge and measured after 30 mins by Green-2 AM dye based flow cytometric analysis (reference value: 27.1%); type: cell-based; settings: THP-1
[10] = target: NACHT, LRR and PYD domains-containing protein 3 (Homo sapiens) (UniProt Q96P20); assay: Inhibition of NLRP3 inflammasome activation in LPS-stimulated human THP1 cells assessed as reduction in IL-1beta secretion at 10 uM incubated for 1 hr followed by nigericin addition and measured after 1 hr by ELISA relative to control; type: cell-based; settings: THP-1
THP-1 [11] = assay: Modulation of intracellular calcium release in LPS-stimulated human THP1 cells at 1 to 100 uM incubated for 1 hr followed by nigericin challenge and measured after 1 hr by Fluo-3dye based flow cytometric analysis; type: functional, cell-based
[12] = Cytotoxicity against human THP1 cells assessed as cell viability at 1 uM after 24 hrs by CellTiter-Glo luminescent cell viability assay relative to control; type: cell-based; settings: THP-1 cells, read-out: Activity
[13] = target: T1, P2X purinoceptor 7 (Homo sapiens); assay: Modulation of P2X7 receptor in LPS-stimulated human THP1 cells assessed as LPS-nigericin-stimulated intracellular potassium efflux at 10 uM incubated for 1 hr followed by nigericin challenge and measured after 1 hr by Green-2 AM dye based flow cytometric analysis (reference value: 29%); type: cell-based; settings: THP-1
THP-1 [14] = assay: Antiinflammatory activity in human THP1 cells assessed as reduction in LPS-induced IL-1beta secretion at 0.1 to 10 uM incubated for 1 hr followed by LPS stimulation and measured after 24 hrs by ELISA; type: functional, cell-based
[15] = Cytotoxicity against human THP1 cells assessed as cell viability at 0.1 to 100 uM after 24 hrs in presence of LPS by CellTiter-Glo luminescent cell viability assay relative to control; type: cell-based; settings: THP-1 cells, read-out: Activity
[16] = Cytotoxicity against human THP1 cells assessed as cell viability at 0.1 uM after 24 hrs by CellTiter-Glo luminescent cell viability assay relative to control; type: cell-based; settings: THP-1 cells, read-out: Activity
[17] = target: T1, P2X purinoceptor 7 (Homo sapiens); assay: Modulation of P2X7 receptor in LPS-stimulated human THP1 cells assessed as LPS-nigericin-stimulated intracellular potassium efflux at 1 uM incubated for 1 hr followed by nigericin challenge and measured after 1 hr by Green-2 AM dye based flow cytometric analysis (reference value: 29%); type: cell-based; settings: THP-1

Sequence of NACHT, LRR and PYD domains-containing protein 3 (Homo sapiens) (Q96P20 whole entry, the tested form may be a part): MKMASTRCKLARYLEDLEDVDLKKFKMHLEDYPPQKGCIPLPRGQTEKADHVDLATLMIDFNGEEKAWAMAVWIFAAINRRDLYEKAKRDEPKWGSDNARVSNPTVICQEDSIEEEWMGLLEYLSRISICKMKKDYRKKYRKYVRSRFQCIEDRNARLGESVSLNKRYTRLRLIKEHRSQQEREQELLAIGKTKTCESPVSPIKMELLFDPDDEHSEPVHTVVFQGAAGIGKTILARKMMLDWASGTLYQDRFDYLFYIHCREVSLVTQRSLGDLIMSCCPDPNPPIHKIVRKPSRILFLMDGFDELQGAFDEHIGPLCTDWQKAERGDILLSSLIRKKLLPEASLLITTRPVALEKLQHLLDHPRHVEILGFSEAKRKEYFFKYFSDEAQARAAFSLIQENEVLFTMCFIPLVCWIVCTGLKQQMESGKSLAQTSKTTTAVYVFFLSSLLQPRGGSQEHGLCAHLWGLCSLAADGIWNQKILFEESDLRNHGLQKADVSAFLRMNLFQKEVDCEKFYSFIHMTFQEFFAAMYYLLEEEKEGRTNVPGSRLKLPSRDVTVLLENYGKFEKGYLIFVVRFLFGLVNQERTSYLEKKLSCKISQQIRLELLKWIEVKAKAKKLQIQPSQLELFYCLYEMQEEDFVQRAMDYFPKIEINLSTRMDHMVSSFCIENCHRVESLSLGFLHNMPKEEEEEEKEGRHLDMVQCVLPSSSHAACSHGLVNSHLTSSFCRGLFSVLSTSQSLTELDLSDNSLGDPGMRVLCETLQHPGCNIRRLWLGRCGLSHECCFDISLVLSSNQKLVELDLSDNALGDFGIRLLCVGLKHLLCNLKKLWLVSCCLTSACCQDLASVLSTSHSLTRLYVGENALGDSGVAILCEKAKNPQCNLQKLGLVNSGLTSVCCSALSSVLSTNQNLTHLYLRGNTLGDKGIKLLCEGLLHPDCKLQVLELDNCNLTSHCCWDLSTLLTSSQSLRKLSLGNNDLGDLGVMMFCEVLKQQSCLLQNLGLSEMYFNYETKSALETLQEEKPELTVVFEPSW

SMILES | Activity (THP-1 [1]) [pg/mL] | inhibition [2] [%] | viability at 24 h, 100 µM [3] [%] | inhibition [4] [%] | Activity [5] [%] | Activity [6] [%] | viability at 24 h, 10 µM [7] [%] | Activity (THP-1 [8]) [pg/mL] | Activity [9] [%] | inhibition [10] [%] | Activity (THP-1 [11]) | viability at 24 h, 1 µM [12] [%] | Activity [13] [%] | Activity (THP-1 [14]) | viability at 24 h, up to 100 µM [15] [%] | viability at 24 h, 0.1 µM [16] [%] | Activity [17] [%]
C=C1C(=O)[C@]23[C@H](O)[C@H]1CC[C@H]2[C@@]12CO[C@]3(O)[C@@H](O)[C@@H]1C(C)(C)CC[C@@H]2O [ORIDONIN] | 777.2 |  |  |  |  |  |  |  |  |  |  |  |  |  |  |  | 
C=C(C)[C@@H]1CCC(C)=C[C@H]1c1c(O)cc(CCCCC)cc1O [CANNABIDIOL] | 661.9 | 63.9 | 99.9 | 64.1 | 16.1 | 12.4 | 103 | 32.9 | 13.1 | 83.1 | inactive | 97.6 | 16 | inactive | > 97 | 96.5 | 20
CC(C)(O)c1coc(S(=O)(=O)NC(=O)Nc2c3c(cc4c2CCC4)CCC3)c1 | 957.6 |  |  |  |  |  |  |  |  |  |  |  |  |  |  |  | 
